Data set [1] concerns the target T1, Protein cereblon/Tyrosine-protein kinase BTK (Homo sapiens, UniProt Q06187+Q96SW2). As to the kind of experiment: PROTAC activity at CRBN/BTK in human JeKo-1 cells assessed as BTK degradation at 30 nM incubated for 24 hrs by Western blot analysis relative to control. It counts as cell-based.
Target sequence in this assay (Q06187 2-659 limits assumed): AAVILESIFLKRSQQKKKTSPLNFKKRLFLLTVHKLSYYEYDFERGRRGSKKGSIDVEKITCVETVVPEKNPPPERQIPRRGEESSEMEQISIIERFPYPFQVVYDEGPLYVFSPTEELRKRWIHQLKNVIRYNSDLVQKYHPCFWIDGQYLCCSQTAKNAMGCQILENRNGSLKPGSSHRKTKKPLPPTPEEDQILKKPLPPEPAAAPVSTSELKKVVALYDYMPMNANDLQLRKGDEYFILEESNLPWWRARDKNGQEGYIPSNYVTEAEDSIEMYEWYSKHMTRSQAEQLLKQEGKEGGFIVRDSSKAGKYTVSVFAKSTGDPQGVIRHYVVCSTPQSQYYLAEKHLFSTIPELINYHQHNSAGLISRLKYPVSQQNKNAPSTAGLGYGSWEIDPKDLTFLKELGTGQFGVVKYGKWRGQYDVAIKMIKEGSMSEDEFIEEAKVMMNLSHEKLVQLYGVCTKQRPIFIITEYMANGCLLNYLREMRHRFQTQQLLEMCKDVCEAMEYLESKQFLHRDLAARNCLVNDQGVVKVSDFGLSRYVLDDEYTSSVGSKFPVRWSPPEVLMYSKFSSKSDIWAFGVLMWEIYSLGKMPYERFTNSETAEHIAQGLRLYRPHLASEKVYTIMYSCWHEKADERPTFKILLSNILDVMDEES
Target sequence in this assay (Q96SW2 whole entry partner): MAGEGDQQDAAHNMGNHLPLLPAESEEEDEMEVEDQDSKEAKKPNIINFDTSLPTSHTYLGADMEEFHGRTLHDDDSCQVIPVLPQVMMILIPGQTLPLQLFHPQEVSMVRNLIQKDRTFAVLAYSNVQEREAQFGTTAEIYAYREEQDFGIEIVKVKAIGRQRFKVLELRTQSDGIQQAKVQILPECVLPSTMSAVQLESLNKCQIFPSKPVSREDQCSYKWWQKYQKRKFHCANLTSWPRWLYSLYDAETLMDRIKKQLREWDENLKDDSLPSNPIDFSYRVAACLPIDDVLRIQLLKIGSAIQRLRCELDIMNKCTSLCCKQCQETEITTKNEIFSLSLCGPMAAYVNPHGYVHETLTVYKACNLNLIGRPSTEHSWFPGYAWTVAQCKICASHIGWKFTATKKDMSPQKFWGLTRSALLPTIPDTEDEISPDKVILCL
A short description of data set [2]: Cytotoxicity against human TMD8 cells harboring wild-type BTK assessed as inhibition of cell viability incubated for 5 days by CCK8 assay. The class given is functional, cell-based. As to conditions: TMD8, 120 h.
Data set [3] addresses T1, Protein cereblon/Tyrosine-protein kinase BTK. In words: PROTAC activity at CRBN/BTK in human JeKo-1 cells assessed as BTK degradation at 100 nM incubated for 24 hrs by Western blot analysis relative to control. It counts as cell-based.
Target sequence in this assay (Q06187 2-659 limits assumed): as the sequence (Q06187 2-659 limits assumed) above
Target sequence in this assay (Q96SW2 whole entry partner): as the sequence (Q96SW2 whole entry partner) above
Data set [4] can be described thus: Cytotoxicity against human TMD8 cells harboring BTK C481S mutant assessed as inhibition of cell viability incubated for 5 days by CCK8 assay. It counts as functional, cell-based. As to conditions: TMD8, 120 h.
Data set [5] addresses T1, Protein cereblon/Tyrosine-protein kinase BTK. As to the kind of experiment: PROTAC activity at CRBN/BTK in human JeKo-1 cells assessed as BTK degradation at 10 nM incubated for 24 hrs by Western blot analysis relative to control. The class given is cell-based.
Target sequence in this assay (Q06187 2-659 limits assumed): as the sequence (Q06187 2-659 limits assumed) above
Target sequence in this assay (Q96SW2 whole entry partner): as the sequence (Q96SW2 whole entry partner) above
Data set [6] in a line: Microsomal stability in human liver microsomes assessed as compound remaining measured up to 60 mins in presence of NADPH by LC-MS/MS analysis. The class given is ADME, Microsome. As to conditions: read-out: Stability.
Data set [7] is described as follows: Microsomal stability in human liver microsomes assessed as intrinsic clearance in liver measured up to 60 mins in presence of NADPH by LC-MS/MS analysis. It counts as ADME, Microsome. As to conditions: read-out: CLH.
Data set [8] can be described thus: Microsomal stability in human liver microsomes assessed as half life measured up to 60 mins in presence of NADPH by LC-MS/MS analysis. It counts as ADME, Microsome.
Data set [9] can be described thus: Microsomal stability in human liver microsomes assessed as compound remaining measured up to 60 mins by LC-MS/MS analysis. As to conditions: read-out: Stability. It counts as ADME, Microsome.
Data set [10] is described as follows: Microsomal stability in human liver microsomes assessed as intrinsic clearance in microsomes measured up to 60 mins in presence of NADPH by LC-MS/MS analysis. The class given is ADME, Microsome. As to conditions: read-out: CLH.
Data set [11] has as its target T1, Protein cereblon/Tyrosine-protein kinase BTK. In words: PROTAC activity at CRBN/BTK in human JeKo-1 cells assessed as BTK degradation incubated for 24 hrs by Western blot analysis. It counts as cell-based.
The target is the same in data set [12]. In words: PROTAC activity at CRBN/BTK in human JeKo-1 cells assessed as BTK degradation at 100 nM measured after 4 hrs by Western blot analysis relative to control. The class given is cell-based.
Target sequence in this assay (Q06187 2-659 limits assumed): as the sequence (Q06187 2-659 limits assumed) above
Target sequence in this assay (Q96SW2 whole entry partner): as the sequence (Q96SW2 whole entry partner) above
Data set [13] has the same target. As to the kind of experiment: PROTAC activity at CRBN/BTK in human TMD8 cells assessed as BTK degradation measured after 24 hrs by Western blot analysis. The class given is cell-based.
Data set [14] shares this target. As to the kind of experiment: PROTAC activity at CRBN/BTK in human JeKo-1 cells assessed as BTK degradation incubated for 8 hrs by Western blot analysis. As to conditions: dose 0.1-1000 nM. The class given is cell-based.
Target sequence in this assay (Q06187 2-659 limits assumed): as the sequence (Q06187 2-659 limits assumed) above
Target sequence in this assay (Q96SW2 whole entry partner): as the sequence (Q96SW2 whole entry partner) above
The test system of data set [15] is Protein cereblon/Tyrosine-protein kinase BTK (Homo sapiens), Q06187+Q96SW2 [C481S]. In words: (§1) PROTAC activity at CRBN/BTK C481S mutant (unknown origin) expressed in human TMD8 cells assessed as BTK degradation measured after 24 hrs by Western blot analysis. It counts as cell-based. As to conditions: dose 0.1-1000 nM.
The target in data set [16] is Protein cereblon/Tyrosine-protein kinase BTK (Homo sapiens, UniProt Q06187+Q96SW2, C481S). Described as §1. It counts as cell-based.
Chain of Protein cereblon/Tyrosine-protein kinase BTK (Homo sapiens, UniProt Q06187+Q96SW2, C481S) (Q06187 whole entry, looked up, stated change not applied): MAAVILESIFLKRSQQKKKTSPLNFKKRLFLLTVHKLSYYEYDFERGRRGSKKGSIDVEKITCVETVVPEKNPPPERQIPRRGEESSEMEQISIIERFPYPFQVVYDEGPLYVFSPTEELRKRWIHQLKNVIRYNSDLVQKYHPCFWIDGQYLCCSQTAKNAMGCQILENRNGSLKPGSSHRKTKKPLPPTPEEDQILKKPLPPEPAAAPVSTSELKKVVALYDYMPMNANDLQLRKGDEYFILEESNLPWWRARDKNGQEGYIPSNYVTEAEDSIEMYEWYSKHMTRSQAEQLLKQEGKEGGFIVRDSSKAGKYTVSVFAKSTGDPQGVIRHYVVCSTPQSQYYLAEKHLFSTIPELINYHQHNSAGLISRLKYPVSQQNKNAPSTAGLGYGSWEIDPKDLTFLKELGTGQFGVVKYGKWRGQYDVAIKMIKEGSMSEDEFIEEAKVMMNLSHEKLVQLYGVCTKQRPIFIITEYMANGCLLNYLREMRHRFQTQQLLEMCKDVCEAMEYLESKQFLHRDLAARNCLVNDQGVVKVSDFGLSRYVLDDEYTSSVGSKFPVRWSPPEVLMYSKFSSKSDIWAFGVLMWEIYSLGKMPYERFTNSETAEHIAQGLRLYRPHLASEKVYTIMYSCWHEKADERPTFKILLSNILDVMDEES
Chain of Protein cereblon/Tyrosine-protein kinase BTK (Homo sapiens, UniProt Q06187+Q96SW2, C481S) (Q96SW2 whole entry, looked up, stated change not applied): as the sequence (Q96SW2 whole entry partner) above
The target in data set [17] is T1, Protein cereblon/Tyrosine-protein kinase BTK. In words: PROTAC activity at CRBN/BTK in human JeKo-1 cells assessed as BTK degradation at 10 nM incubated for 24 hrs in presence of bortezomib by Western blot analysis. The class given is cell-based.
Target sequence in this assay (Q06187 2-659 limits assumed): as the sequence (Q06187 2-659 limits assumed) above
Target sequence in this assay (Q96SW2 whole entry partner): as the sequence (Q96SW2 whole entry partner) above
The subject of data set [18] is JeKo-1. In words: Effect on IKZF3 level in human JeKo-1 cells at 0.1 to 1000 nM incubated for 8 hrs by Western blot analysis. It counts as functional, cell-based. As to conditions: dose 0.1-1000 nM.
In data set [19] the target is T1, Protein cereblon/Tyrosine-protein kinase BTK. In words: PROTAC activity at CRBN/BTK in human JeKo-1 cells assessed as BTK degradation at 10 nM incubated for 24 hrs in presence of MLN-4924 by Western blot analysis. It counts as cell-based.
Data set [20] shares this target. As to the kind of experiment: PROTAC activity at CRBN/BTK in human JeKo-1 cells assessed as BTK degradation at 100 nM by Western blot analysis. It counts as cell-based. As to conditions: time 1-24 hrs.
For data set [21], the system named is JeKo-1. As to the kind of experiment: Effect on GSPT1 level in human JeKo-1 cells at 0.1 to 1000 nM incubated for 8 hrs by Western blot analysis. As to conditions: dose 0.1-1000 nM. It counts as functional, cell-based.
Data set [22] addresses T1, Protein cereblon/Tyrosine-protein kinase BTK. As to the kind of experiment: PROTAC activity at CRBN/BTK in human JeKo-1 cells assessed as hook effect up to 1 uM incubated for 24 hrs by Western blot analysis. It counts as cell-based.
In data set [23] the test system is JeKo-1. As to the kind of experiment: Effect on IKZF1 level in human JeKo-1 cells at 0.1 to 1000 nM incubated for 8 hrs by Western blot analysis. The class given is functional, cell-based. As to conditions: dose 0.1-1000 nM.
Data set [24] addresses T1, Protein cereblon/Tyrosine-protein kinase BTK. In words: PROTAC activity at CRBN/BTK in human JeKo-1 cells assessed as BTK degradation up to 100 nM incubated for 24 hrs by Western blot analysis. It counts as cell-based.

Active and inactive are the calls of the source. The calls are words filed in the database; no cut-off is given here. Some results are limits rather than exact numbers.

`O=C1CCC(N2Cc3cc(N4CCC(CCN5CCC(CC(=O)N[C@H]6CC[C@@H](Nc7ncnc8[nH]cc(C(=O)c9ccc(Oc%10ccccc%10)cc9Cl)c78)CC6)CC5)CC4)c(F)cc3C2=O)C(=O)N1` (stereo partly specified): the Activity in [1] is 92%; in data set [3] it was 89%; in data set [5], 83%. Moreover, the IC50 in data set [2] is 23.9 nM; in data set [4], 27.4 nM.
As to `NC(=O)c1ncc(N2CCCCC2)nc1Nc1ccc(C2CCN(C[C@@H]3CCN(c4ccc5c(c4)C(=O)N(C4CCC(=O)NC4=O)C5=O)C3)CC2)cc1` (stereo partly specified), the IC50 in data set [2] was found to be 8.8 nM; in data set [4] it was 18 nM.
Turning to `O=C1CCC(c2ccc(N3CCC(CN4CCC(CC(=O)N[C@H]5CC[C@H](Nc6ncnc7[nH]cc(C(=O)c8ccc(Oc9ccccc9)cc8)c67)C5)CC4)CC3)nc2)C(=O)N1` (stereo partly specified), the Activity in data set [1] turned out to be 91%; in [3], 93%; in data set [5], 84%. In addition, the remaining at 1 h in data set [6] stood at 53.9%; in data set [9] it was 94.6%. Besides, the CLint scaled in [7] was 18.2 mL/min/kg. In [8], the half-life was determined as 1.13 h. In addition, in data set [10], the microsomal CLint amounted to 20.3 µL/min/mg. Besides, the DC50 in data set [11] was 3.1 nM.
Turning to `O=C1CCC(c2ccc(N3CCC(CN4CCC(CC(=O)N[C@H]5CC[C@H](Nc6ncnc7[nH]cc(C(=O)c8ccc(Oc9ccccc9)cc8)c67)C5)CC4)CC3)cc2)C(=O)N1` (stereo partly specified), the Activity was found to be 85% in [1], 88% in data set [3] and 69% in data set [5]. The remaining at 1 h in data set [6] turned out to be 55.6%; in data set [9], 96.8%. In addition, the CLint scaled in data set [7] worked out at 14.2 mL/min/kg. For the same compound, the half-life in [8] was 1.47 h. In addition, the microsomal CLint in data set [10] was 15.8 µL/min/mg. The DC50 in data set [11] is 3.6 nM.
Consider `O=C1CCC(N2Cc3cc(N4CCC(CCN5CCC(CC(=O)N[C@@H]6CC[C@H](Nc7ncnc8[nH]cc(C(=O)c9ccc(Oc%10ccccc%10)cc9Cl)c78)C6)CC5)CC4)c(F)cc3C2=O)C(=O)N1` (stereo partly specified), for which the Activity was 91% in data set [1], 88% in [3] and 77% in data set [5].
Take `O=C(c1ccc(Oc2ccccc2)cc1Cl)c1c[nH]c2ncnc(N[C@@H]3CC[C@@H](CO)OC3)c12` [NEMTABRUTINIB]: the half-inhibitory concentration (IC50) in data set [2] worked out at 335 nM; in data set [4], 594 nM.
For the compound `O=C1CCC(N2Cc3cc(N4CCC(CCN5CCC(CC(=O)N[C@H]6CC[C@H](Nc7ncnc8[nH]cc(C(=O)c9ccc(Oc%10ccccc%10)cc9Cl)c78)C6)CC5)CC4)c(F)cc3C2=O)C(=O)N1` (stereo partly specified), the Activity in data set [1] amounted to 94%; in data set [3], 98%; in data set [5], 88%.
Turning to `O=C1CCC(c2ccc(N3CCC(CCN4CCC(CC(=O)N[C@H]5CC[C@H](Nc6ncnc7[nH]cc(C(=O)c8ccc(Oc9ccccc9)cc8)c67)C5)CC4)CC3)cc2)C(=O)N1` (stereo partly specified), the Activity is 81% in data set [1]; 100% in [12]; 85% in [3]; “Dose-dependent-effect” in data set [13] (dose 0.1-1000 nM); “Dose-dependent-effect” in data set [14]; “Dose-dependent-effect” in data set [15]. Further, the Activity in [5] is 78%; in data set [20] it was “Time-dependent-effect; Compound Exhibited Significant Reduction At 1 Hr”; in data set [11] (dose 0.01-1000 nM), “Dose-dependent-effect”. Also, the remaining at 1 h in data set [6] stood at 92.2%; in data set [9], 99.8%. The IC50 in data set [2] worked out at 24.6 nM; in data set [4], 26.5 nM. Moreover, the CLint scaled in [7] is < 8.6 mL/min/kg. Besides, the half-life in data set [8] was > 2.42 h. For the same compound, the results for the DC50 in [13], in [16] and in [11] were 3.4 nM, 5.6 nM and 1.7 nM, respectively. The outcome in data set [17], in data set [18], in data set [19], in [21], in [22] and in [23] was inactive. The microsomal CLint in [10] is < 9.6 µL/min/mg.
In the case of `CN1C(=O)CCC(c2ccc(N3CCC(CCN4CCC(CC(=O)N[C@H]5CC[C@H](Nc6ncnc7[nH]cc(C(=O)c8ccc(Oc9ccccc9)cc8)c67)C5)CC4)CC3)nc2)C1=O` (stereo partly specified), the outcome in data set [24] was inactive.
For the compound `O=C1CCC(N2Cc3cc(N4CCC(CCN5CCC(CC(=O)N[C@H]6CC[C@@H](Nc7ncnc8[nH]cc(C(=O)c9ccccc9Cl)c78)CC6)CC5)CC4)c(F)cc3C2=O)C(=O)N1` (stereo partly specified), the Activity in [1] amounted to 32%; in data set [3], 36%; in data set [5], 18%.
For `O=C1CCC(NC(=O)c2ccc(N3CCC(CCN4CCC(CC(=O)N[C@H]5CC[C@@H](Nc6ncnc7[nH]cc(C(=O)c8ccc(Oc9ccccc9)cc8Cl)c67)CC5)CC4)CC3)cn2)C(=O)N1` (stereo partly specified), the figures for the Activity in data set [1], in [3] and in data set [5] were 54%, 73% and 4%, respectively.
Regarding `O=C1CCC(c2ccc(N3CCC(CCN4CCC(CC(=O)N[C@H]5CC[C@@H](Nc6ncnc7[nH]cc(C(=O)c8ccc(Oc9ccccc9)cc8)c67)CC5)CC4)CC3)cc2)C(=O)N1` (stereo partly specified), the results for the Activity in data set [1], in data set [3] and in data set [5] were 79%, 69% and 69%, respectively.
Take `O=C1CCC(N2Cc3cc(N4CCC(CCN5CCC(CC(=O)N6CCC(Nc7ncnc8[nH]cc(C(=O)c9ccc(Oc%10ccccc%10)cc9Cl)c78)CC6)CC5)CC4)c(F)cc3C2=O)C(=O)N1` (stereo unspecified): the Activity in data set [1] was found to be 90%; in data set [3], 94%; in data set [5], 80%.
In the case of `O=C1CCC(N2Cc3cc(N4CCC(CCN5CCC(CC(=O)N[C@H]6CC[C@@H](Nc7ncnc8[nH]cc(C(=O)c9ccc(F)cc9Cl)c78)CC6)CC5)CC4)c(F)cc3C2=O)C(=O)N1` (stereo partly specified), the Activity in data set [1] stood at 7%; in [3], 23%; in data set [5], 11%.
On to `CN1C(=O)CCC(c2ccc(N3CCC(CCN4CCC(CC(=O)N[C@H]5CC[C@H](Nc6ncnc7[nH]cc(C(=O)c8ccc(Oc9ccccc9)cc8)c67)C5)CC4)CC3)cc2)C1=O` (stereo partly specified), for which, in data set [24], the result was inactive.
Take `O=C1CCC(c2ccc(N3CCC(CN4CCC(CC(=O)N[C@H]5CC[C@@H](Nc6ncnc7[nH]cc(C(=O)c8ccc(Oc9ccccc9)cc8)c67)CC5)CC4)CC3)cc2)C(=O)N1` (stereo partly specified): the Activity in data set [1] stood at 51%; in [3], 74%; in data set [5], 50%.
As for `O=C1CCC(c2ccc(N3CCC(CCN4CCC(CC(=O)N[C@H]5CC[C@@H](Nc6ncnc7[nH]cc(C(=O)c8ccc(Oc9ccccc9)cc8Cl)c67)CC5)CC4)CC3)cc2)C(=O)N1` (stereo partly specified), the Activity in [1] turned out to be 85%; in data set [3], 89%; in data set [5], 79%.

(Values after ChEMBL document CHEMBL6134821, “Design, synthesis, and biological evaluation of novel BTK-targeting proteolysis targeting chimeras (PROTACs) with enhanced pharmacokinetic properties” (Eur J Med Chem, 2025).)
